We go through 8 compounds from PMC9841533, “Microtubule-Stabilizing 1,2,4-Triazolo[1,5-a]pyrimidines as Candidate Therapeutics for Neurodegenerative Disease: Matched Molecular Pair Analyses and Computational Studies Reveal New Structure–Activity Insights” (Journal of Medicinal Chemistry, 2022).

Where a name gives a salt, the structure may show the parent alone. Read-outs that look alike come from different tables or passages of the source.

The test system of assay [1] is acetylated α-tubulin (AcTub) levels in QBI293 cells. Description: QBI293 cell assay of MT stabilization: acetylated α-tubulin ELISA. It is filed as cell-based. Here is the method: (§1) All test compounds were initially screened in the same cell-based (QBI293) assay of MT stabilization used in our previous SAR studies[11],[12] so as to allow direct comparison with literature data. Changes in levels of acetylated α-tubulin (AcTub) and total α-tubulin (α-Tub), relative to vehicle-treated negative control cells, were determined after 4 h of incubation with test compounds at 1 and 10 μM. To account for possible day-to-day differences in the responsiveness of cells to MT-stabilizing treatment, compound-dependent changes in AcTub levels relative to DMSO-treated cells were also normalized to the corresponding changes caused by 100 nM of 5 that was used as a positive control. In addition, docking studies, binding free energy calculations, and in selected cases, molecular dynamic simulations were conducted using an X-ray structure of the vinca and seventh sites (PDB: 5NJH,[10]7CLD[13]). […] For selected compounds, additional studies included testing in the QBI293 cell AcTub assay at additional compound concentrations, and/or evaluation of test compounds for their ability to prevent MT collapse in primary neuron cultures treated with the phosphatase inhibitor, okadaic […] (OA). Finally, cytotoxicity studies in QBI293 and HeLa cells were also conducted for representative examples (Supporting Information).
(§2) Compound-induced changes in acetylated-tubulin and α-tubulin in QBI293 cells or primary mouse or rat neurons were as previously described.[11],[12] […] The plated cells were incubated overnight, after which the medium was aspirated and fresh medium containing vehicle (0.25–0.3% DMSO) or test compound was added. Test compounds were prepared as 4–20 mM stock solutions in 100% DMSO, and these were diluted in culture medium prior to addition to the QBI293 cells. After 4 h incubation, whole-cell extracts were prepared from the QBI293 cells as described[11] and the supernatant fraction from each sample was assessed for protein content by bicinchoninic acid (BCA) assay. The amount of acetyl-tubulin (AcTub) and α-tubulin (αTub) within the cell extract samples was quantified using specific enzyme-linked immunosorbent assays (ELISA), as previously described.[11] Acetyl-tubulin levels were determined in a similar manner in rat or mouse cortical neuron cultures in which embryonic dissociated cortical neurons were plated at 3 × 10^5 cells/well in poly-D-lysine-coated 12-well plates, essentially as previously described.[11] […] Culture homogenates were prepared for the determination of AcTub levels by ELISA as previously described.[11]
Background: An ELISA detects its analyte on a solid surface through an enzyme-linked reagent.

The test system of assay [2] is total α-tubulin (α-Tub) levels in QBI293 cells. Description: QBI293 cell assay: total α-tubulin ELISA. It is filed as cell-based. Here is the method: as §1, §2
Where [3] appears, read: 4 h, 1 uM compound, read-out: AcTub (1uM).
[4] abbreviates: 4 h, 10 uM compound, read-out: AcTub (10 uM).
The mark [5] stands for this setting: 4 h incubation, 1 μM, read-out: AcTub 1 μM, fold-change compared to vehicle (DMSO)-treated cells.
[6] abbreviates: 4 h incubation, 10 μM, read-out: AcTub 10 μM, fold-change compared to vehicle (DMSO)-treated cells.
Where [7] appears, read: 4 h, 1 uM compound, read-out: AlfaTub (1uM).
[8] abbreviates: 4 h, 10 uM compound, read-out: AlfaTub (10 uM).
[9] abbreviates: 4 h incubation, 1 μM, read-out: α-Tub 1 μM, fold-change compared to vehicle (DMSO)-treated cells.
[10] abbreviates: 4 h incubation, 10 μM, read-out: α-Tub 10 μM, fold-change compared to vehicle (DMSO)-treated cells.

Turning to `C#Cc1cc(F)c(-c2c(Cl)nc3ncnn3c2N[C@H](C)C(C)C)c(F)c1` [Compound 34, (R)-5-Chloro-6-(4-ethynyl-2,6-difluorophenyl)-N-(3-methylbutan-2-yl)-[1,2,4]triazolo[1,5-a]pyrimidin-7-amine], the “AcTub (1 uM - normalized)” value in assay [1] (1 uM compound) stood at 0.39. Further, the “AcTub (10 uM - normalized)” value in assay [1] (10 uM compound) is recorded as 0.88. Moreover, the fold induction at 1 µM worked out at 3.56 in assay [1] (setting [3]), 3.56 ± 0.27 in assay [1] (setting [5]), 0.98 in assay [2] (setting [7]) and 0.98 ± 0.002 in assay [2] (setting [9]). Moreover, the fold induction at 10 µM in assay [1] (setting [4]) was 8.02; in assay [1] (setting [6]), 8.02 ± 0.25; in assay [2] (setting [8]), 1.03; in assay [2] (setting [10]) it was 1.03 ± 0.008. Besides, the “AcTub 1 μM, fold-change compared to positive control compound 5 (100 nM) (in parentheses)” value (shortened to “AcTub 1 μM, fold-change”) in assay [1] (4 h incubation, 1 μM) is given as 0.39 fold-change. Moreover, in assay [1] (4 h incubation, 10 μM), the “AcTub 10 μM, fold-change compared to positive control compound 5 (100 nM) (in parentheses)” value (from here on “AcTub 10 μM, fold-change”) stood at 0.88 fold-change.

Turning to `C[C@H](Nc1c(-c2c(F)cc(C#CCCO)cc2F)c(Cl)nc2ncnn12)C(F)(F)F` [Compound 42, (S)-4-(4-(5-Chloro-7-((1,1,1-trifluoropropan-2-yl)amino)-[1,2,4]triazolo[1,5-a]pyrimidin-6-yl)-3,5-difluorophenyl)but-3-yn-1-ol], the “AcTub (1 uM - normalized)” value in assay [1] (1 uM compound) is listed as 0.23. Besides, the “AcTub (10 uM - normalized)” value in assay [1] (10 uM compound) was found to be 0.92. Also, the fold induction at 1 µM in assay [1] (setting [3]) amounted to 1.62; in assay [1] (setting [5]) it was 1.62 ± 0.05; in assay [2] (setting [7]), 0.88; in assay [2] (setting [9]), 0.88 ± 0.01. Further, the fold induction at 10 µM in assay [1] (setting [4]) came out at 6.4; in assay [1] (setting [6]), 6.4 ± 0.32; in assay [2] (setting [8]), 0.69; in assay [2] (setting [10]), 0.69 ± 0.02. The “AcTub 1 μM, fold-change” value in assay [1] (4 h incubation, 1 μM) was determined as 0.23 fold-change. For the same compound, the “AcTub 10 μM, fold-change” value in assay [1] (4 h incubation, 10 μM) turned out to be 0.92 fold-change.

With `C[C@H](Nc1c(-c2c(F)cc(C#CCCCO)cc2F)c(Cl)nc2ncnn12)C(F)(F)F` [Compound 43, (S)-5-(4-(5-Chloro-7-((1,1,1-trifluoropropan-2-yl)amino)-[1,2,4]triazolo[1,5-a]pyrimidin-6-yl)-3,5-difluorophenyl)pent-4-yn-1-ol], in assay [1] (1 uM compound), the “AcTub (1 uM - normalized)” value was 2.29. Further, the “AcTub (10 uM - normalized)” value in assay [1] (10 uM compound) is on record as 1.93. Moreover, the fold induction at 1 µM in assay [1] (setting [3]) worked out at 17.1; in assay [1] (setting [5]), 17.1 ± 0.5; in assay [2] (setting [7]) it was 0.93; in assay [2] (setting [9]), 0.93 ± 0.02. Besides, the fold induction at 10 µM is 14.4 in assay [1] (setting [4]), 14.4 ± 0.6 in assay [1] (setting [6]), 0.87 in assay [2] (setting [8]) and 0.87 ± 0.03 in assay [2] (setting [10]). Besides, the “AcTub 1 μM, fold-change” value in assay [1] (4 h incubation, 1 μM) is given as 2.29 fold-change. For the same compound, the “AcTub 10 μM, fold-change” value in assay [1] (4 h incubation, 10 μM) amounted to 1.93 fold-change. Also, the “total α-Tub at higher (30 μM) concentration” value in assay [2] (4 h, 30 μM) was “reduction in total tubulin levels could be detected only at higher concentrations”.

`C[C@H](Nc1c(-c2c(F)cc(C#CCCN(C)C)cc2F)c(Cl)nc2ncnn12)C(F)(F)F` [Compound 44, (S)-5-Chloro-6-(4-(4-(dimethylamino)but-1-yn-1-yl)-2,6-difluorophenyl)-N-(1,1,1-trifluoropropan-2-yl)-[1,2,4]triazolo[1,5-a]pyrimidin-7-amine]: the “AcTub (1 uM - normalized)” value in assay [1] (1 uM compound) was 2.01. For the same compound, the “AcTub (10 uM - normalized)” value in assay [1] (10 uM compound) turned out to be 1.17. In addition, the fold induction at 1 µM in assay [1] (setting [3]) came to 10.9; in assay [1] (setting [5]), 10.9 ± 0.24; in assay [2] (setting [7]), 0.77; in assay [2] (setting [9]) it was 0.77 ± 0.04. Moreover, the fold induction at 10 µM in assay [1] (setting [4]) is 6.33; in assay [1] (setting [6]), 6.33 ± 0.22; in assay [2] (setting [8]), 0.93; in assay [2] (setting [10]) it was 0.93 ± 0.03. Besides, the “AcTub 1 μM, fold-change” value in assay [1] (4 h incubation, 1 μM) is listed as 2.01 fold-change. Further, in assay [1] (4 h incubation, 10 μM), the “AcTub 10 μM, fold-change” value stood at 1.17 fold-change.

Turning to `CC(C)[C@@H](C)Nc1c(-c2c(F)cc(C#CCN(C)C)cc2F)c(Cl)nc2ncnn12` [Compound 47, (R)-5-Chloro-6-(4-(3-(dimethylamino)prop-1-yn-1-yl)-2,6-difluorophenyl)-N-(3-methylbutan-2-yl)-[1,2,4]triazolo[1,5-a]pyrimidin-7-amine], the “AcTub (1 uM - normalized)” value in assay [1] (1 uM compound) was 0.40. Also, the “AcTub (10 uM - normalized)” value in assay [1] (10 uM compound) is recorded as 1.4. Moreover, the fold induction at 1 µM in assay [1] (setting [3]) worked out at 2.21; in assay [1] (setting [5]) it was 2.21 ± 0.6; in assay [2] (setting [7]), 0.98; in assay [2] (setting [9]) it was 0.98 ± 0.04. Also, the fold induction at 10 µM was 7.7 in assay [1] (setting [4]), 7.68 ± 0.85 in assay [1] (setting [6]), 1.03 in assay [2] (setting [8]) and 1.03 ± 0.04 in assay [2] (setting [10]). Also, in assay [1] (4 h incubation, 1 μM), the “AcTub 1 μM, fold-change” value was determined as 0.40 fold-change. In assay [1] (4 h incubation, 10 μM), the “AcTub 10 μM, fold-change” value was determined as 1.40 fold-change.

Turning to `CNCC#Cc1cc(F)c(-c2c(Cl)nc3ncnn3c2N[C@H](C)C(C)C)c(F)c1` [Compound 51, (R)-5-Chloro-6-(2,6-difluoro-4-(3-(methylamino)prop-1-yn-1-yl)phenyl)-N-(3-methylbutan-2-yl)-[1,2,4]triazolo[1,5-a]pyrimidin-7-amine Hydrochloride], the “AcTub (1 uM - normalized)” value in assay [1] (1 uM compound) is 0.27. Also, the “AcTub (10 uM - normalized)” value in assay [1] (10 uM compound) worked out at 0.79. Also, the fold induction at 1 µM in assay [1] (setting [3]) came out at 1.98; in assay [1] (setting [5]) it was 1.98 ± 0.09; in assay [2] (setting [7]), 0.96; in assay [2] (setting [9]), 0.96 ± 0.01. In addition, the fold induction at 10 µM in assay [1] (setting [4]) was 5.92; in assay [1] (setting [6]), 5.92 ± 0.14; in assay [2] (setting [8]), 0.96; in assay [2] (setting [10]), 0.96 ± 0.03. Further, the “AcTub 1 μM, fold-change” value in assay [1] (4 h incubation, 1 μM) stood at 0.27 fold-change. Further, in assay [1] (4 h incubation, 10 μM), the “AcTub 10 μM, fold-change” value is 0.79 fold-change.

Regarding `CC(C)[C@@H](C)Nc1c(-c2c(F)cc(C#CCCN(C)C)cc2F)c(Cl)nc2ncnn12` [Compound 52, (R)-5-Chloro-6-(4-(4-(dimethylamino)but-1-yn-1-yl)-2,6-difluorophenyl)-N-(3-methylbutan-2-yl)-[1,2,4]triazolo[1,5-a]pyrimidin-7-amine 2,2,2-Trifluoroacetate], the “AcTub (1 uM - normalized)” value in assay [1] (1 uM compound) was determined as 1.75. Further, the “AcTub (10 uM - normalized)” value in assay [1] (10 uM compound) is recorded as 1.24. The fold induction at 1 µM was 9.5 in assay [1] (setting [3]), 9.5 ± 0.22 in assay [1] (setting [5]), 1 in assay [2] (setting [7]) and 1 ± 0.02 in assay [2] (setting [9]). Further, the fold induction at 10 µM in assay [1] (setting [4]) was 6.7; in assay [1] (setting [6]), 6.7 ± 0.5; in assay [2] (setting [8]) it was 1.15; in assay [2] (setting [10]) it was 1.15 ± 0.02. The “AcTub 1 μM, fold-change” value in assay [1] (4 h incubation, 1 μM) was determined as 1.75 fold-change. In assay [1] (4 h incubation, 10 μM), the “AcTub 10 μM, fold-change” value is given as 1.24 fold-change.

As for `C[C@@H](Nc1c(-c2c(F)cc(C#CCN(C)C)cc2F)c(Cl)nc2ncnn12)C(C)(C)C` [Compound 55, (R)-5-Chloro-6-(4-(3-(dimethylamino)prop-1-yn-1-yl)-2,6-difluorophenyl)-N-(3,3-dimethylbutan-2-yl)-[1,2,4]triazolo[1,5-a]pyrimidin-7-amine], in assay [1] (1 uM compound), the “AcTub (1 uM - normalized)” value was 0.45. Also, the “AcTub (10 uM - normalized)” value in assay [1] (10 uM compound) was determined as 1.43. Further, the fold induction at 1 µM in assay [1] (setting [3]) was 1.36; in assay [1] (setting [5]) it was 1.36 ± 0.08; in assay [2] (setting [7]) it was 1; in assay [2] (setting [9]) it was 1 ± 0.05. For the same compound, the fold induction at 10 µM turned out to be 4.32 in assay [1] (setting [4]), 4.32 ± 0.28 in assay [1] (setting [6]), 0.84 in assay [2] (setting [8]) and 0.87 ± 0.01 in assay [2] (setting [10]). Moreover, in assay [1] (4 h incubation, 1 μM), the “AcTub 1 μM, fold-change” value came to 0.45 fold-change. The “AcTub 10 μM, fold-change” value in assay [1] (4 h incubation, 10 μM) worked out at 1.43 fold-change.
